Assay results from PubChem BioAssay AID2738 (Broad Institute, 2010).
The source made the active and inactive calls.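 The calls were made as follows: active = IC50 at or below ten times the top tested concentration; inconclusive = flat fit at 30 to 70% inhibition, or invalid poor fit; inactive = IC50 beyond ten times the top tested dose.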

Molecular target: POS-1 (Caenorhabditis elegans) binding to mex-3 RNA
Test: disruptors of C. elegans POS-1 RNA interaction – biochemical, fluorescence polarization, up to 135 µM, dose response (AID 2738)
Settings: POS-1-MBP / FITC mex-3 RNA

Cc1nc2ccccc2c(=O)n1/N=C/c1ccc(O)c(O)c1O
IC50: 16.9 µM

O=c1c(O)cccc2cc(O)c(O)c(O)c12
IC50: 11.9 µM

CCN(CC)CCCNC(=O)CCC(=O)NNc1nc2ccccc2c2nc(C)nn12
IC50: 2.2 µM

O=CN/N=C/c1c(O)ccc2ccccc12
IC50: 22 µM

ON=C1/C(=N\O)CC2(C/C1=N/O)OCCO2
IC50: > 135 µM (inactive)

O=C(NNC(=O)c1ccccc1[N+](=O)[O-])c1csc(N2CCOCC2)n1
IC50: 119 µM

COCCCNC(=O)CCC(=O)NNc1nc2ccccc2c2nc(C)nn12
IC50: 8.56 µM

N=c1c(C(=O)NC2CCCCC2)cc2c(=O)n3ccccc3nc2n1Cc1cccnc1
IC50: > 350 µM (inactive)

CCN(CC)c1ccc(/C=C2\C(=O)NC(=S)N(C)C2=O)o1
IC50: > 135 µM (inactive)

Oc1ccc(CCNc2c3ccccc3nc3ccccc23)cc1O
IC50: > 135 µM (inactive)

COc1ccc(-c2cn[nH]c2-c2ccc(OCC(=O)NN)cc2O)cc1OC
IC50: > 135 µM (inactive)

CC1=C(C(=O)OCc2ccccc2)C(c2ccccc2[N+](=O)[O-])NC(=O)N1C (stereo not given)
IC50: 25.6 µM

CCN(CC)c1ccc(/C=C2\C(=O)NC(=S)N(c3ccc(OC)cc3OC)C2=O)o1
IC50: > 135 µM (inactive)

Cc1ccc(N2C(=O)NC(=O)/C(=C\c3cc(C)n(-c4ccc(C(=O)O)cc4)c3C)C2=O)cc1
IC50: > 135 µM (inactive)

NC(CO)C(=O)NNCc1ccc(O)c(O)c1O (stereo not given)
IC50: > 135 µM (inactive)

CCc1ccccc1N1C(=O)/C(=C\c2ccc(N3CCN(C)CC3)o2)C(=O)NC1=S
IC50: > 135 µM (inactive)

CCCCN(C)C(=O)CCC(=O)NNc1nc2ccccc2c2nc(C)nn12
IC50: 62.3 µM

Cn1ncc2c(NNC(=O)Cc3ccccc3)ncnc21
IC50: 127 µM

CCOC(=O)c1cc(CC)sc1/N=C/c1c(O)[nH]c(=S)[nH]c1=O
IC50: 45.5 µM

Cc1ncc(CO)c(/C=N/NC(=O)c2cc(Br)ccc2O)c1O
IC50: 51.2 µM
